# What was measured:
# [1] = target: T1, FAAH (Mus musculus, UniProt O08914); assay: In vitro competitive activity-based protein profiling (mouse), FAAH; assay type: biochemical; settings: for IC50: mouse brain membrane fraction or cell lysates, 30 min preincubation at 37° C, FP-Rh probe; for inhibition at 1 µM: mouse proteome, in vitro
# T1 construct: Proteomes (mouse brain membrane fraction or cell lysates); from tissue; host or cells: mouse brain membrane fraction (or unspecified cell lysates)
# T1 sequence (O08914 1-579): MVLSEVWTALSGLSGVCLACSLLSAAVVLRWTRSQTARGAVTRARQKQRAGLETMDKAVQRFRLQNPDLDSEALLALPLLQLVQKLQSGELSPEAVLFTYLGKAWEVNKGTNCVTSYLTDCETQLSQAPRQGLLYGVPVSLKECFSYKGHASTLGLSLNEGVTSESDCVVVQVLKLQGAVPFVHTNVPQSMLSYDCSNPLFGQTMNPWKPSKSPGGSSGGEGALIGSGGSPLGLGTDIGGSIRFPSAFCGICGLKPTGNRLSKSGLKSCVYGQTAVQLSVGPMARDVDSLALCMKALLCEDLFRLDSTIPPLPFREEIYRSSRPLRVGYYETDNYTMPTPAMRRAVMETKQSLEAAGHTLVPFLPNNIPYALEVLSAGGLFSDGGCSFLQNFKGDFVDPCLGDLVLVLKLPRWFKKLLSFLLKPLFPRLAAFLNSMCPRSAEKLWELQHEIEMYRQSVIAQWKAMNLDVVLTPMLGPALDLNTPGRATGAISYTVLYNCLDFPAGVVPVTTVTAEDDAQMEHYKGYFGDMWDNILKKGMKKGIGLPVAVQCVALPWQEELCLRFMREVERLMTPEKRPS
# Procedure, shortened: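 Competitive ABPP: inhibitor exposure (30 min, 37° C) of mouse brain membrane or lysate proteome at 1.0 mg/mL, then labelling with FP-Rh for another 30 min. Activity quantified by in-gel fluorescence of FAAH bands after SDS-PAGE.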
# [2] = target: T2, ABHD6 (Mus musculus, UniProt Q8R2Y0); assay: Mouse brain proteomes from inhibitor treated mice, ABHD6; assay type: in vivo; settings: 5 mg/kg oral gavage, C57Bl/6J mice, brain proteome 4 h after administration
# T2 construct: Proteomes (mouse brain membrane fraction or cell lysates); from tissue; host or cells: mouse brain membrane fraction (or unspecified cell lysates)
# T2 sequence (Q8R2Y0 1-336): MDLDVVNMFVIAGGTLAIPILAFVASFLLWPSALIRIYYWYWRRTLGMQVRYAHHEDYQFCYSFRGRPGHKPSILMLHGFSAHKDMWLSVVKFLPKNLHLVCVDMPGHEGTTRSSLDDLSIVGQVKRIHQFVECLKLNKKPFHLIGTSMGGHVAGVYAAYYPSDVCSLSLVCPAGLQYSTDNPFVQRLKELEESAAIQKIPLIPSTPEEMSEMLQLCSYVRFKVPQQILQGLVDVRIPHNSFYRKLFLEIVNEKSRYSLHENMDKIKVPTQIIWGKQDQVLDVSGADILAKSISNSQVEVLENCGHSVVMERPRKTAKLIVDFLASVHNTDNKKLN
# Description: (§1) Preparation of Mouse Brain Proteomes from Inhibitor Treated Mice.
# (§2) Inhibitors were administered to wild-type C57Bl/6J by oral gavage in a vehicle of polyethylene glycol.
# [3] = target: T3, MAGL (Mus musculus, UniProt O35678); assay: In vitro competitive activity-based protein profiling (mouse), MAGL; assay type: biochemical; settings: for IC50: mouse brain membrane fraction or cell lysates, 30 min preincubation at 37° C, FP-Rh probe; for inhibition at 1 µM: mouse proteome, in vitro, read-out: % Inhibition at 1 μM MAGL
# T3 construct: Proteomes (mouse brain membrane fraction or cell lysates); from tissue; host or cells: mouse brain membrane fraction (or unspecified cell lysates)
# T3 sequence (O35678 1-303): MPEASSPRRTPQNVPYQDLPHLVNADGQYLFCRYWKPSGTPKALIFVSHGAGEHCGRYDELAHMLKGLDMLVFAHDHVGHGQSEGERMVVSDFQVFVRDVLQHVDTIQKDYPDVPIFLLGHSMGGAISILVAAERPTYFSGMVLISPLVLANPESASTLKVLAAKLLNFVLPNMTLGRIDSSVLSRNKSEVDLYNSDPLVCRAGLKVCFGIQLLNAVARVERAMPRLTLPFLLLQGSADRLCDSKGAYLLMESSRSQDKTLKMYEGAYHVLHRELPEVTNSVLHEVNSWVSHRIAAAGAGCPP
# Description: (§3) In Vitro Competitive Activity-Based Protein Profiling (Mouse).
# (§4) Proteomes (mouse brain membrane fraction or cell lysates) (50 μL, 1.0 mg/mL total protein concentration) were preincubated with varying concentrations of inhibitors at 37° C. After 30 min, FP-Rh (1.0 μL, 50 μM in DMSO) was added and the mixture was incubated for another 30 min at 37° C. Reactions were quenched with SDS loading buffer (50 μL-4×) and run on SDS-PAGE.
# [4] = target: T2, ABHD6; assay: In vitro competitive activity-based protein profiling (mouse), ABHD6; assay type: biochemical; settings: for IC50: mouse brain membrane fraction or cell lysates, 30 min preincubation at 37° C, FP-Rh probe; for inhibition at 1 µM: mouse proteome, in vitro, read-out: % Inhibition at 1 μM ABHD6
# Description: as §3, §4
# [5] = target: T1, FAAH; assay: Mouse brain proteomes from inhibitor treated mice, FAAH; assay type: in vivo; settings: 5 mg/kg oral gavage, C57Bl/6J mice, brain proteome 4 h after administration
# Description: as §1
# Inhibitors were administered to wild-type C57Bl/6J by oral gavage in a vehicle of polyethylene glycol. Each animal was sacrificed 4 h following administration and brain proteomes were prepared and analyzed according to previously established methods (See Niphakis, M. J., et al. (2011) ACS Chem. Neurosci. and Long, J. Z., et al. Nat. Chem. Biol. 5:37-44)
# [6] = target: T3, MAGL; assay: Mouse brain proteomes from inhibitor treated mice, MAGL; assay type: in vivo; settings: 5 mg/kg oral gavage, C57Bl/6J mice, brain proteome 4 h after administration
# Description: as §1, §2
SMILES,IC50 [1] [nM],inhibition at 5 mg/kg [2] [%],IC50 [3] [nM],IC50 [4] [nM],inhibition at 5 mg/kg [5] [%],inhibition at 5 mg/kg [6] [%],inhibition at 1 µM [1] [%],inhibition at 1 µM [3] [%],inhibition at 1 µM [4] [%]
"C#CCO[C@H]1CCN(c2cc(Cl)ccc2CN2CCN(C(=O)OC(C(F)(F)F)C(F)(F)F)CC2)C1 [Example 3, 1,1,1,3,3,3-hexafluoropropan-2-yl (S)-4-(4-chloro-2-(3-(prop-2-yn-1-yloxy)pyrrolidin-1-yl)benzyl)piperazine-1-carboxylate]",> 1000,< 25,< 100,> 1000,< 25,> 75,,,
"O=C(OC(C(F)(F)F)C(F)(F)F)N1CCN(Cc2ccc(Cl)cc2N2CC[C@H](CF)C2)CC1 [Example 4, 1,1,1,3,3,3-hexafluoropropan-2-yl (S)-4-(4-chloro-2-(3-(fluoromethyl)pyrrolidin-1-yl)benzyl)piperazine-1-carboxylate]",> 1000,< 25,< 100,> 1000,< 25,> 75,< 25,> 75,< 25
"O=C(OC(C(F)(F)F)C(F)(F)F)N1CCN(Cc2ccc(Cl)cc2N2CC3CCC(C2)O3)CC1 [Example 30, 1,1,1,3,3,3-hexafluoropropan-2-yl 4-(2-(8-oxa-3-azabicyclo[3.2.1]octan-3-yl)-4-chlorobenzyl)piperazine-1-carboxylate]",> 1000,,,,< 25,,,,
"O=C(OC(C(F)(F)F)C(F)(F)F)N1CCN(Cc2ccc(C(F)(F)F)cc2N2C3CCC2COC3)CC1 [Example 58, 1,1,1,3,3,3-hexafluoropropan-2-yl 4-(2-(3-oxa-8-azabicyclo[3.2.1]octan-8-yl)-4-(trifluoromethyl)benzyl)piperazine-1-carboxylate]",> 1000,,,,< 25,,< 25,,
"O=C(OC(C(F)(F)F)C(F)(F)F)N1CCN(Cc2cc(N3CCC(CO)CC3)cc(C(F)(F)F)c2)CC1 [Example 91, 1,1,1,3,3,3-hexafluoropropan-2-yl 4-(3-(4-(hydroxymethyl)piperidin-1-yl)-5-(trifluoromethyl)benzyl)piperazine-1-carboxylate]",> 1000,,100 to 1000,100 to 1000,,,< 25,> 75,> 75
"O=C(O)C1CN(c2cc(CN3CCN(C(=O)OC(C(F)(F)F)C(F)(F)F)CC3)cc(C(F)(F)F)c2)CCO1 (centres unmarked) [Example 92, 4-(3-((4-(((1,1,1,3,3,3-hexafluoropropan-2-yl)oxy)carbonyl)piperazin-1-yl)methyl)-5-(trifluoromethyl)phenyl)morpholine-2-carboxylic acid]",> 1000,,< 100,> 1000,,,< 25,> 75,< 25
"O=C(O)C(=O)c1cc(CN2CCN(C(=O)OC(C(F)(F)F)C(F)(F)F)CC2)cc(C(F)(F)F)c1 [Example 93, 2-(3-((4-(((1,1,1,3,3,3-hexafluoropropan-2-yl)oxy)carbonyl)piperazin-1-yl)methyl)-5-(trifluoromethyl)phenyl)-2-oxoacetic acid]",> 1000,,< 100,100 to 1000,,,< 25,> 75,> 75
"O=C(O)C1CCN(c2cc(CN3CCN(C(=O)OC(C(F)(F)F)C(F)(F)F)CC3)cc(C(F)(F)F)c2)CC1 [Example 94, 1-(3-((4-(((1,1,1,3,3,3-hexafluoropropan-2-yl)oxy)carbonyl)piperazin-1-yl)methyl)-5-(trifluoromethyl)phenyl)piperidine-4-carboxylic acid]",> 1000,,100 to 1000,< 100,,,< 25,25 to 75,> 75

# The next lines start with the values.
IC50 [1] [nM],inhibition at 5 mg/kg [2] [%],IC50 [3] [nM],IC50 [4] [nM],inhibition at 5 mg/kg [5] [%],inhibition at 5 mg/kg [6] [%],inhibition at 1 µM [1] [%],inhibition at 1 µM [3] [%],inhibition at 1 µM [4] [%],SMILES
> 1000,25 to 75,< 100,100 to 1000,< 25,> 75,< 25,> 75,> 75,"COc1c(CN2CCN(C(=O)OC(C(F)(F)F)C(F)(F)F)CC2)cccc1CN1CCC(F)(F)CC1 [Example 16, 1,1,1,3,3,3-hexafluoropropan-2-yl 4-(3-((4,4-difluoropiperidin-1-yl)methyl)-2-methoxybenzyl)piperazine-1-carboxylate]"
> 1000,< 25,< 100,> 1000,< 25,> 75,< 25,> 75,< 25,"O=C(OC(C(F)(F)F)C(F)(F)F)N1CCN(Cc2ccc(CN3CCOCC3)cc2OC(F)(F)F)CC1 [Example 23, 1,1,1,3,3,3-hexafluoropropan-2-yl 4-(4-(morpholinomethyl)-2-(trifluoromethoxy)benzyl)piperazine-1-carboxylate]"
> 1000,> 75,< 100,100 to 1000,< 25,> 75,< 25,> 75,> 75,"O=C(OC(C(F)(F)F)C(F)(F)F)N1CCN(Cc2ccc(C(F)(F)F)c(N3CC4CCC(C3)O4)c2)CC1 [Example 26, 1,1,1,3,3,3-hexafluoropropan-2-yl 4-(3-(8-oxa-3-azabicyclo[3.2.1]octan-3-yl)-4-(trifluoromethyl)benzyl)piperazine-1-carboxylate]"
> 1000,< 25,< 100,> 1000,< 25,25 to 75,< 25,> 75,< 25,"O=C(OC(C(F)(F)F)C(F)(F)F)N1CCN(Cc2cccc(OC(F)(F)F)c2N2CC3CCC(C2)O3)CC1 [Example 31, 1,1,1,3,3,3-hexafluoropropan-2-yl 4-(2-(8-oxa-3-azabicyclo[3.2.1]octan-3-yl)-3-(trifluoromethoxy)benzyl)piperazine-1-carboxylate]"
> 1000,,,,< 25,,< 25,,,"O=C(OC(C(F)(F)F)C(F)(F)F)N1CCN(Cc2ccc(C(F)(F)F)cc2N2CC3CCC(C2)O3)CC1 [Example 59, 1,1,1,3,3,3-hexafluoropropan-2-yl 4-(2-(8-oxa-3-azabicyclo[3.2.1]octan-3-yl)-4-(trifluoromethyl)benzyl)piperazine-1-carboxylate]"

# Reference: patent US9771341B2, “Piperazine carbamates and methods of making and using same” (Abide Therapeutics, Inc., priority 2015, dated 2017)
